In the NIST ThermoML archive (doi:10.1021/je4002009):
± gives the expanded uncertainty stated by the source.

Test: mn = molality of the nth substance listed, in mol/kg
Conditions: 101 kPa, Liquid; for viscosity: Capillary tube (Ostwald / Ubbelohde) method

O=C1CCC[NH+]1C1CCCCC1.O=S(=O)([O-])c1ccccc1 [1-cyclohexyl-2-oxopyrrolidin-1-ium benzenesulfonate] + O
Conditions | mass density, 298.15 K [kg/m3] | mass density, 303.15 K [kg/m3] | mass density, 308.15 K [kg/m3] | viscosity, 298.15 K [mPa·s] | viscosity, 303.15 K [mPa·s] | viscosity, 308.15 K [mPa·s]
m1 = 0.0509 | 999.45 ± 0.76 | 997.89 ± 0.78 | 995.97 ± 0.79 | 0.9377 ± 0.011 | 0.8235 ± 0.0096 | 0.7406 ± 0.0086
m1 = 0.1005 | 1002.85 ± 0.79 | 1001.35 ± 0.77 | 999.03 ± 0.77 | 0.9703 ± 0.011 | 0.8645 ± 0.01 | 0.7786 ± 0.0091
m1 = 0.1478 | 1005.4 ± 0.81 | 1003.96 ± 0.8 | 1001.85 ± 0.78 | 1.01 ± 0.012 | 0.8892 ± 0.01 | 0.8095 ± 0.0094
m1 = 0.1987 | 1007.93 ± 0.84 | 1006.42 ± 0.82 | 1004.55 ± 0.81 | 1.057 ± 0.012 | 0.9268 ± 0.011 | 0.8407 ± 0.0098
m1 = 0.2532 | 1010.59 ± 0.87 | 1009.02 ± 0.85 | 1007.24 ± 0.83 | 1.11 ± 0.013 | 0.9692 ± 0.011 | 0.8758 ± 0.01
m1 = 0.3009 | 1013.05 ± 0.89 | 1011.32 ± 0.88 | 1009.49 ± 0.86 | 1.153 ± 0.013 | 1.009 ± 0.012 | 0.9088 ± 0.011
m1 = 0.3497 | 1015.5 ± 0.92 | 1013.84 ± 0.9 | 1011.74 ± 0.88 | 1.199 ± 0.014 | 1.051 ± 0.012 | 0.9404 ± 0.011
m1 = 0.4013 | 1018.26 ± 0.95 | 1016.55 ± 0.93 | 1014.3 ± 0.91 | 1.247 ± 0.014 | 1.097 ± 0.013 | 0.9772 ± 0.011
m1 = 0.4514 | 1021.07 ± 0.98 | 1019.24 ± 0.96 | 1016.92 ± 0.94 | 1.292 ± 0.015 | 1.141 ± 0.013 | 1.013 ± 0.012
m1 = 0.5008 | 1023.74 ± 1 | 1022.03 ± 0.99 | 1019.52 ± 0.97 | 1.337 ± 0.015 | 1.181 ± 0.014 | 1.046 ± 0.012
m1 = 0.5492 | 1026.44 ± 1 | 1024.55 ± 1 | 1022.06 ± 1 | 1.383 ± 0.016 | 1.224 ± 0.014 | 1.083 ± 0.013
m1 = 0.6024 | 1029.39 ± 1.1 | 1027.42 ± 1.1 | 1024.91 ± 1 | 1.432 ± 0.017 | 1.268 ± 0.015 | 1.123 ± 0.013
m1 = 0.6506 | 1031.86 ± 1.1 | 1029.91 ± 1.1 | 1027.47 ± 1.1 | 1.479 ± 0.017 | 1.309 ± 0.015 | 1.163 ± 0.014
m1 = 0.7603 | 1037.45 ± 1.2 | 1035.1 ± 1.1 | 1032.83 ± 1.1 | 1.588 ± 0.018 | 1.405 ± 0.016 | 1.249 ± 0.015
m1 = 0.7986 | 1039.18 ± 1.2 | 1036.89 ± 1.1 | 1034.62 ± 1.1 | 1.631 ± 0.019 | 1.442 ± 0.017 | 1.283 ± 0.015
m1 = 0.9023 | 1043.64 ± 1.2 | 1041.09 ± 1.2 | 1038.92 ± 1.2 | 1.736 ± 0.02 | 1.535 ± 0.018 | 1.373 ± 0.016
m1 = 0.9974 | 1047.35 ± 1.3 | 1044.52 ± 1.2 | 1042.51 ± 1.2 | 1.838 ± 0.022 | 1.623 ± 0.019 | 1.448 ± 0.017
m1 = 1.199 | 1054.63 ± 1.4 | 1052.23 ± 1.3 | 1049.68 ± 1.3 | 2.08 ± 0.025 | 1.81 ± 0.021 | 1.617 ± 0.019
